Test results taken from the supplement of paper PMC5844555.

Assays:
Test in all cases: 3' UTR reporter interaction score (median-centred robust z-score of log2 firefly/Renilla activity); higher = less repression of the 3' UTR reporter
Conditions in all cases: HEK293T; 48 h
MYT1L = tested on: MYT1L
How it was run: (§1)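 In at least two independent screens, HEK293T cells in 96-well plates (10,000/well) were co-transfected with DharmaFECT Duo using 100 ng firefly luc2P reporter with the gene's 3' UTR, 20 ng Renilla pRL-TK control and 2.5 pmol miRNA mimic, and dual-luciferase activities were read at 48 h. The interaction score, averaged across screens, is the per-plate robust z-score (median, median absolute deviation) of the log firefly/Renilla ratio, median-centred per miRNA, with more negative indicating interaction.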

FBXW7 = tested on: FBXW7
How it was run: as §1

MYB = tested on: MYB
How it was run: as §1

BRCA2 = tested on: BRCA2
How it was run: as §1

MYCN = tested on: MYCN
How it was run: as §1

PHOX2B = tested on: PHOX2B
How it was run: as §1

EZH2 = tested on: EZH2
How it was run: as §1

NOTCH1 = tested on: NOTCH1
How it was run: as §1

MYC = tested on: MYC
How it was run: as §1

ZEB2 = tested on: ZEB2
How it was run: as §1

RB1 = tested on: RB1
How it was run: as §1

PHF6 = tested on: PHF6
How it was run: as §1

TP53 = tested on: TP53
How it was run: as §1

HRAS = tested on: HRAS
How it was run: as §1

Sequence	3' UTR reporter interaction score (MYT1L)	3' UTR reporter interaction score (FBXW7)	3' UTR reporter interaction score (MYB)	3' UTR reporter interaction score (BRCA2)	3' UTR reporter interaction score (MYCN)	3' UTR reporter interaction score (PHOX2B)	3' UTR reporter interaction score (EZH2)	3' UTR reporter interaction score (NOTCH1)	3' UTR reporter interaction score (MYC)	3' UTR reporter interaction score (ZEB2)	3' UTR reporter interaction score (RB1)	3' UTR reporter interaction score (PHF6)	3' UTR reporter interaction score (TP53)	3' UTR reporter interaction score (HRAS)
ACUGCCCUAAGUGCUCCUUCU	0.161	0.408	-0.35	-0.325	1.21	0.63	0.0537	-0.46	0.276	-0.687	-0.147	-0.374	0.48	-0.229
ACUGGGGGCUUUCGGGCUCUGCGU	0.0192	0.537	0.119	0.135	-0.18	-0.685	-0.722	0.864	-0.444	1.01	0.988	2.06	0.587	-0.439
ACUUACAGACAAGAGCCUUGCUC	-1.75	1.72	-2.25	0.948	-0.0923	1.47	-1.69	0.216	0.117	-0.165	-0.353	-1.11	0.219	1.57
ACUUCACCUGGUCCACUAGCCGU	1.42	-2.1	0.743	-0.412	0.0552	-0.0718	-0.456	0.897	-0.039	0.694	1.16	0.576	-0.237	-0.736
ACUUGGGCACUGAAACAAUGUCC	0.0827	-0.0493	-0.103	-0.973	0.382	0.564	-1.19	-4.15	0.112	1.78	0.0718	1.39	-1.34	-0.00106
ACUUGUAUGCUAGCUCAGGUAG	0.252	0.132	-0.993	0.171	-0.194	0.171	0.301	-2.55	0.231	0.0953	0.468	0.16	-0.611	0.169
AGACCAUGGGUUCUCAUUGU	0.673	-0.214	-0.2	-2.41	0.149	-1.43	0.304	-0.0186	0.53	-1.1	-1.2	1.61	-0.82	-0.0387
AGACCCUGGUCUGCACUCUAU	-1.4	1.02	0.748	0.647	1.92	-0.928	2.76	-0.49	2.47	-0.0019	-2.99	-3.41	-5.07	1.38
AGACCUGGCCCAGACCUCAGC	-3.18	0.099	0.0206	-0.79	0.863	-0.381	0.316	-0.568	0.0891	-0.702	-2.21	-0.218	0.562	-0.381
AGACUUCCCAUUUGAAGGUGGC	0.482	0.497	0.287	-0.566	-2.21	0.285	0.311	-0.842	-0.381	0.705	0.0148	1.01	-0.0594	-0.109
AGAGGCUGGCCGUGAUGAAUUC	-1.95	-0.536	0.549	-0.104	0.202	1.42	0.351	0.488	-1.78	0.958	-0.425	2.37	-1.7	-0.467
AGAGGUAGUAGGUUGCAUAGU	-0.701	-0.0422	0.728	0.509	-3.2	-0.956	-3.25	-0.39	-2.12	-0.685	-0.186	0.956	0.943	1
AGAGGUAUAGGGCAUGGGAAAA	0.692	-0.74	0.665	0.942	-2.96	-0.404	-0.166	0.463	0.244	1.12	-0.615	0.541	-0.403	-0.616
AGAUCGACCGUGUUAUAUUCGC	-1.38	-0.751	-1.19	0.451	0.592	-0.0818	0.0389	0.965	0.022	-1.03	0.976	0.689	-2.1	0.57
AGCAGCAUUGUACAGGGCUAUCA	-2.1	-2.69	-2.18	1.96	0.215	-0.507	-1	-0.476	0.869	1.43	1.3	1.3	-0.509	0.106
AGCAGCAUUGUACAGGGCUAUGA	-1.07	-0.997	-1.03	0.461	0.0597	1.07	-0.463	-0.182	1.13	0.465	-1.15	2.88	0.727	-0.255
AGCUACAUCUGGCUACUGGGUCUC	-0.398	0.465	-3.44	-0.144	1.39	0.255	-0.0907	0.41	0.941	-1.04	-3.28	-0.555	0.614	1.2
AGCUACAUUGUCUGCUGGGUUUC	-0.38	1.22	-4.52	-0.328	0.451	0.602	0.0119	0.703	0.427	-0.124	-3.13	-0.314	0.277	0.0503
